One assay addresses T1, human P2X3 receptor (Homo sapiens, UniProt P56373).
T1 construct: gene P2RX3; full-length receptor stably expressed in 1321 N1 astrocytoma cells; homotrimer
T1 sequence (P56373 1-397): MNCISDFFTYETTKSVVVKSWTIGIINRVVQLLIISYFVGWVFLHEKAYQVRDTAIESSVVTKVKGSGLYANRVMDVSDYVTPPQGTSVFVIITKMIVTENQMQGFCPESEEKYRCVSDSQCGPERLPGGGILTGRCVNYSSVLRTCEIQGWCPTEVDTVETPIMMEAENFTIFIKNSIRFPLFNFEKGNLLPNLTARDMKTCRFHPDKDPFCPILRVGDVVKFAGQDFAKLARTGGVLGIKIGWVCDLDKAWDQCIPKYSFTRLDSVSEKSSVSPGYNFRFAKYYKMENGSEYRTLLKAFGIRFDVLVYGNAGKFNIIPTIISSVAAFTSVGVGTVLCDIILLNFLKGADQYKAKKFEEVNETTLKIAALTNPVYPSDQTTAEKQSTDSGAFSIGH
In words: inhibition of ATP-induced calcium influx. The assay is classed as cell-based. The settings on record: agonist ATP at ~80% of maximal effect; read-out: 6. From the text:
inhibition of ATP-induced calcium influx on human P2X3 receptor

Assay [1] deals with T2, human leukocyte elastase (HLE) (Homo sapiens, UniProt P08246).
T2 construct: gene ELANE; enzyme stock in sodium acetate buffer
T2 sequence (P08246 30-247): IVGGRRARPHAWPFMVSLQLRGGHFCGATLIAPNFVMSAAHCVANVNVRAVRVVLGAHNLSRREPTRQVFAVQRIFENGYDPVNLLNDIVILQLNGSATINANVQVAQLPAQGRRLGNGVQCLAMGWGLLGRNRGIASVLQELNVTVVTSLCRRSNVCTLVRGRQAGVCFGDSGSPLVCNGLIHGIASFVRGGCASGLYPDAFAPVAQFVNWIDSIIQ
The assay can be described thus: chromogenic assay, […] nm. The assay is classed as biochemical. The settings on record: 100 μM MeO-Suc-Ala-Ala-Pro-Val-pNA, sodium phosphate pH 7.8, 500 mM NaCl, 25 °C, 1.5% DMSO; read-out: 6.

Assay [2] addresses T3, human adenosine A3 receptor (A3AR) (Homo sapiens, UniProt P0DMS8).
T3 construct: gene ADORA3; membrane preparations of CHO cells expressing human A3AR
T3 sequence (P0DMS8 1-318): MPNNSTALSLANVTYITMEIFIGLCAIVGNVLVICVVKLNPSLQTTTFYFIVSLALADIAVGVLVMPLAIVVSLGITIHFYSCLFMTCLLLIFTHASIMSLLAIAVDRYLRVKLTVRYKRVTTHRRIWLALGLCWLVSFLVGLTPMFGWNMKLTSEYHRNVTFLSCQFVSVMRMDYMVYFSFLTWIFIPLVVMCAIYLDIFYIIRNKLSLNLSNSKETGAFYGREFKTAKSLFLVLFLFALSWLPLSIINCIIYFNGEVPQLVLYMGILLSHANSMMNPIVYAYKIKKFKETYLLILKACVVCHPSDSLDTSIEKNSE
In words: [3H]PSB-11 radioligand competition, CHO membranes. The assay is classed as binding. The settings on record: 0.5 nM [3H]PSB-11, 50 mM Tris-HCl pH 7.4, 23 °C, 60 min; read-out: 6. From the text:
[3H]PSB-11 radioligand competition, CHO membranes on human adenosine A3 receptor (A3AR)

The next assay relates to 1321N1 astrocytoma cells. The assay can be described thus: cells. The settings on record: Homo sapiens, 1321-N1, 72 h; read-out: Growth inhibition IC50 ± SEM. More on the design: MTT viability assay, absorbance at 570 nm. Here is the method:
MTT assays: The test compounds were investigated at human 1321 N1 astrocytoma cells using the 3‐(4,5‐dimethylthiazol‐2‐yl)‐2,5‐diphenyltetrazolium bromide (MTT) assay in order to assess their cytotoxic effects. Assays were performed as previously described by Baqi et al.30 In brief, cells were detached from the 175 cm^2 culture flasks in which they were grown and subsequently counted using a Neubauer haemocytometer. Then, they were resuspended in the growth medium. An aliquot of the cell suspension (180 μL) was added into each well of a 96‐well plate to obtain 1000 cells per well and incubated for 24 h at 37 °C, 5 % CO2, and 95 % humidity. The outer wells of the 96‐well plate were filled with 200 μL of phosphate‐buffered saline (PBS) to prevent evaporation of the fluid. After 24 h, stock solutions (10 mM) of the test compounds (archazolids) were prepared in DMSO and diluted with cell culture medium to give tenfold of the final concentrations. […] The spectrophotometric absorbance was subsequently measured at 570 nm using a FlexStation (3 multimode plate reader, molecular devices) with a filter of 690 nm. The data were analyzed using Microsoft Excel and GraphPad Prism 5. Results were evaluated by comparing the absorbance of the wells containing compound‐treated cells with the absorbance of wells containing 1 % DMSO without any drug (=100 % viability). […]

Regarding `COC1C(C)=CCCCCOC(=O)CCCC(C)=CC(O)C(C)C=C(C)C=C(C)C=CC(O)C1C` (stereo not shown) [compound 6, Analogue 6], on human P2X3 receptor, the IC50 worked out at 1190 ± 180 nM. The Ki in assay [1] turned out to be 13300 ± 1500 nM; in assay [2], 436 ± 111 nM.
Consider `COC1C(C)=CCCCCOC(=O)CCCC(C)=CC(O)C(C)C=C(C)C=C(C)C=CC(O)C1C` (stereo not shown) [compound 6], for which the IC50 in the assay with 1321N1 astrocytoma cells was determined as 19.6 ± 4 nM.

(Values after publication PMC7496434 (Chemmedchem, 2020).)
